The values that follow come from patent US9486506B2 (Novo Nordisk A/S, priority 2011, dated 2016).

Numbered stars: 1 amine (or outer) side, 2 acyl side, 3 side chain; on linkers, the order of the positions; unused ones are H or OH. Side chains are listed from the residue outwards. Peptide text beside a SMILES is read from it. * marks the point of attachment. C18 diacid = O=C(O)CCCCCCCCCCCCCCCCC(=O)*; C16 diacid = O=C(O)CCCCCCCCCCCCCCC(=O)*; γGlu = O=C(O)[C@H](CCC(=O)[*:2])N[*:1]; AEEA = NCCOCCOCC(=O)O

The EC50 is the concentration that produces a half-maximal response. The low end stands for an effect from little substance, the high end for a need for much substance.

T1 sequence (P47871 26-477): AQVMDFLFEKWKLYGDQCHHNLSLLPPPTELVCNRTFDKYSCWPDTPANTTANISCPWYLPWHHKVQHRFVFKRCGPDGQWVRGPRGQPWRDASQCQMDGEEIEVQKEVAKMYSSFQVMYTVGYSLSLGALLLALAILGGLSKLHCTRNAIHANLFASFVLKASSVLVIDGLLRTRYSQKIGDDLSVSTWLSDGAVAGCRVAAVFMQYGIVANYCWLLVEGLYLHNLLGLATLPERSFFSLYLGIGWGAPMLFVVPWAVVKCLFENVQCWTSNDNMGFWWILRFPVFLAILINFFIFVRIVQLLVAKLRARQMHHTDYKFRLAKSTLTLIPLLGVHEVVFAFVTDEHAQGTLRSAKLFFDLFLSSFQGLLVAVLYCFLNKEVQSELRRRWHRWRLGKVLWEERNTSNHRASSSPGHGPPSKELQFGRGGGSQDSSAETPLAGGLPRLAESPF

The assay has as its target T1, glucagon receptor (Homo sapiens, UniProt P47871).
T1 construct: expressed in transfected cells
Kind of assay: Assay (I) Glucagon activity (cAMP biosensor, FLIPR). Type of assay: cell-based.
The molecule `CC(C)C[C@H](NC(=O)[C@H](Cc1ccc(O)cc1)NC(=O)[C@H](CCCCN)NC(=O)[C@H](CO)NC(=O)[C@H](Cc1ccc(O)cc1)NC(=O)[C@H](CC(=O)O)NC(=O)[C@H](CO)NC(=O)[C@@H](NC(=O)[C@H](Cc1ccccc1)NC(=O)[C@@H](NC(=O)CNC(=O)[C@H](CCC(N)=O)NC(=O)[C@H](CO)NC(=O)[C@@H](N)Cc1c[nH]cn1)[C@@H](C)O)[C@@H](C)O)C(=O)N[C@@H](CCC(=O)O)C(=O)N[C@@H](CO)C(=O)N[C@@H](CCCNC(=N)N)C(=O)N[C@@H](CCCNC(=N)N)C(=O)N[C@@H](C)C(=O)N[C@@H](CCC(N)=O)C(=O)N[C@@H](CC(=O)O)C(=O)N[C@@H](Cc1ccccc1)C(=O)N[C@H](C(=O)N[C@@H](CCCCNC(=O)CC[C@H](NC(=O)CC[C@H](NC(=O)COCCOCCNC(=O)COCCOCCNC(=O)CC[C@H](NC(=O)CCCCCCCCCCCCCCCCC(=O)O)C(=O)O)C(=O)O)C(=O)O)C(=O)N[C@@H](Cc1c[nH]c2ccccc12)C(=O)N[C@@H](CC(C)C)C(=O)N[C@@H](CC(C)C)C(=O)N[C@@H](CCC(N)=O)C(=O)N[C@H](C(=O)O)[C@@H](C)O)C(C)C` [Example 60, N^ε24-[(4S)-4-carboxy-4-[[(4S)-4-carboxy-4-[[2-[2-[2-[[2-[2-[2-[[(4S)-4-carboxy-4-(17-carboxyheptadecanoylamino)butanoyl]amino]ethoxy]ethoxy]acetyl]amino]ethoxy]ethoxy]acetyl]amino]butanoyl]amino]butanoyl]-[Glu15,Lys24,Leu27,Gln28]-Glucagon] came in with an EC50 of 0.517 nM.
To `CC(C)C[C@H](NC(=O)[C@H](CC(=O)O)NC(=O)[C@H](CC(C)C)NC(=O)[C@H](Cc1ccc(O)cc1)NC(=O)[C@H](CCCNC(=N)N)NC(=O)[C@H](CO)NC(=O)[C@H](Cc1ccc(O)cc1)NC(=O)[C@H](CC(=O)O)NC(=O)[C@H](CO)NC(=O)[C@@H](NC(=O)[C@H](Cc1ccccc1)NC(=O)[C@@H](NC(=O)CNC(=O)[C@H](CCC(N)=O)NC(=O)[C@H](CO)NC(=O)[C@@H](N)Cc1c[nH]cn1)[C@@H](C)O)[C@@H](C)O)C(=O)N[C@@H](CCCNC(=N)N)C(=O)N[C@@H](CCCNC(=N)N)C(=O)N[C@@H](C)C(=O)N[C@@H](CCC(N)=O)C(=O)N[C@@H](CC(=O)O)C(=O)N[C@@H](Cc1ccccc1)C(=O)N[C@H](C(=O)N[C@@H](CCCCNC(=O)CC[C@H](NC(=O)CC[C@H](NC(=O)CC[C@H](NC(=O)CC[C@H](NC(=O)CCCCCCCCCCCCCCC(=O)O)C(=O)O)C(=O)O)C(=O)O)C(=O)O)C(=O)N[C@@H](Cc1c[nH]c2ccccc12)C(=O)N[C@@H](CC(C)C)C(=O)N[C@@H](CC(C)C)C(=O)N[C@@H](CO)C(=O)N[C@H](C(=O)O)[C@@H](C)O)C(C)C` [Example 74, N^ε24-[(4S)-4-carboxy-4-[[(4S)-4-carboxy-4-[[(4S)-4-carboxy-4-[[(4S)-4-carboxy-4-(15-carboxypentadecanoylamino)butanoyl]amino]butanoyl]amino]butanoyl]amino]butanoyl]-[Arg12,Leu16,Lys24,Leu27,Ser28]-Glucagon] (H-HSQGTFTSDYSRYLDLRRAQDFVK([γGlu-γGlu-γGlu-γGlu-C16 diacid])WLLST-OH) belongs 0.109 nM; to `CC(C)C[C@H](NC(=O)[C@H](Cc1ccc(O)cc1)NC(=O)[C@H](CCCCN)NC(=O)[C@H](CO)NC(=O)[C@H](Cc1ccc(O)cc1)NC(=O)[C@H](CC(=O)O)NC(=O)[C@H](CO)NC(=O)[C@@H](NC(=O)[C@H](Cc1ccccc1)NC(=O)[C@@H](NC(=O)CNC(=O)[C@H](CCC(N)=O)NC(=O)[C@H](CO)NC(=O)[C@@H](N)Cc1c[nH]cn1)[C@@H](C)O)[C@@H](C)O)C(=O)N[C@@H](CCC(=O)O)C(=O)N[C@@H](CO)C(=O)N[C@@H](CCCNC(=N)N)C(=O)N[C@@H](CCCNC(=N)N)C(=O)N[C@@H](C)C(=O)N[C@@H](CCC(N)=O)C(=O)N[C@@H](CC(=O)O)C(=O)N[C@@H](Cc1ccccc1)C(=O)N[C@H](C(=O)N[C@@H](CCCCNC(=O)CC[C@H](NC(=O)COCCOCCNC(=O)COCCOCCNC(=O)CC[C@H](NC(=O)CCCCCCCCCCCCCCCCC(=O)O)C(=O)O)C(=O)O)C(=O)N[C@@H](Cc1c[nH]c2ccccc12)C(=O)N[C@@H](CC(C)C)C(=O)N[C@@H](CC(C)C)C(=O)N[C@@H](CC(N)=O)C(=O)N[C@H](C(=O)O)C(C)C)C(C)C` [Example 33, N^ε24-[(4S)-4-carboxy-4-[[2-[2-[2-[[2-[2-[2-[[(4S)-4-carboxy-4-(17-carboxyheptadecanoylamino)butanoyl]amino]ethoxy]ethoxy]acetyl]amino]ethoxy]ethoxy]acetyl]amino]butanoyl]-[Glu15,Lys24,Leu27,Val29]-Glucagon], 0.92 nM; to `CC(C)C[C@H](NC(=O)[C@H](CC(=O)O)NC(=O)[C@H](CC(C)C)NC(=O)[C@H](Cc1ccc(O)cc1)NC(=O)[C@H](CCCNC(=N)N)NC(=O)[C@H](CO)NC(=O)[C@H](Cc1ccc(O)cc1)NC(=O)[C@H](CC(=O)O)NC(=O)[C@H](CO)NC(=O)[C@@H](NC(=O)[C@H](Cc1ccccc1)NC(=O)[C@@H](NC(=O)CNC(=O)[C@H](CCC(N)=O)NC(=O)[C@H](CO)NC(=O)[C@@H](N)Cc1c[nH]cn1)[C@@H](C)O)[C@@H](C)O)C(=O)N[C@@H](CCCNC(=N)N)C(=O)N[C@@H](CCCNC(=N)N)C(=O)N[C@@H](C)C(=O)N[C@@H](CCC(N)=O)C(=O)N[C@@H](CC(=O)O)C(=O)N[C@@H](Cc1ccccc1)C(=O)N[C@H](C(=O)N[C@@H](CCCCNC(=O)CC[C@H](NC(=O)CC[C@H](NC(=O)COCCOCCNC(=O)COCCOCCNC(=O)CC[C@H](NC(=O)CCCCCCCCCCCCCCCCC(=O)O)C(=O)O)C(=O)O)C(=O)O)C(=O)N[C@@H](Cc1c[nH]c2ccccc12)C(=O)N[C@@H](CC(C)C)C(=O)N[C@@H](CCC(=O)O)C(=O)N[C@@H](CO)C(=O)N[C@H](C(=O)O)[C@@H](C)O)C(C)C` [Example 47, N^ε24-[(4S)-4-carboxy-4-[[(4S)-4-carboxy-4-[[2-[2-[2-[[2-[2-[2-[[(4S)-4-carboxy-4-(17-carboxyheptadecanoylamino)butanoyl]amino]ethoxy]ethoxy]acetyl]amino]ethoxy]ethoxy]acetyl]amino]butanoyl]amino]butanoyl]-[Arg12,Leu16,Lys24,Glu27,Ser28]-Glucagon] (H-HSQGTFTSDYSRYLDLRRAQDFVK([γGlu-γGlu-AEEA-AEEA-γGlu-C18 diacid])WLEST-OH), 0.136 nM.
